According to patent US8247211B2, “Glycopeptide antibiotics” (American Cyanamid Company, priority 2001, dated 2012):
≈ marks a conversion by molar mass, not a printed value. One block for each compound: values may come before it.

Experiments:
Assay in all cases: In vitro antibacterial evaluation: minimum inhibitory concentration (MIC), broth dilution method
Assay type in all cases: cell-based
Escherichia coli = conditions: 18 hours at 35° C.
In short: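 First, organisms are seeded at 5×10^5 CFU/mL into Muller-Hinton II […]. Next, antibiotic is applied across 64-0.06 μg/mL by broth dilution (NCCLS M7-A2). Finally, the lowest inhibitory concentration is recorded as MIC.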

Enterococcus sp. = conditions: 18 hours at 35° C.
In short: (§1)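 NCCLS M7-A2 broth dilution; Muller-Hinton II […]; 5×10^5 CFU/mL; 64-0.06 μg/mL. MIC = lowest concentration with no growth.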

Staphylococcus sp. = conditions: for MIC Staphylococcus aureus (ATCC 29213): strain ATCC 29213; for MIC Staphylococcus aureus (GC 1131): strain GC 1131; for MIC Staphylococcus aureus (GC 3051): strain GC 3051; for MIC Staphylococcus aureus (GC 3053): strain GC 3053; for MIC Staphylococcus aureus (GC 4541): strain GC 4541; for MIC Staphylococcus aureus (GC 4542): strain GC 4542; for MIC Staphylococcus aureus-SMITH (GC 4543): strain GC 4543; for MIC Staphylococcus aureus (GC 4544): strain GC 4544; for MIC Staphylococcus aureus (GC 4545): strain GC 4545; for MIC Staphylococcus haemolyticus (GC 4546): strain GC 4546; for MIC Coagulase Negative Staphylococcus (GC 4547): strain GC 4547; for MIC Coagulase Negative Staphylococcus (GC 4548): strain GC 4548; for MIC Coagulase Negative Staphylococcus (GC 4549): strain GC 4549; for MIC Coagulase Negative Staphylococcus (GC 4551): strain GC 4551
In short: as §1

Streptococcus sp. = conditions: 18 hours at 35° C.
In short: as §1

[1] = Enterococcus faecalis (ATCC 29212)
[2] = Enterococcus faecalis (GC 2242)
[3] = Enterococcus faecalis (GC 2691)
[4] = Enterococcus faecalis (GC 3059)
[5] = Enterococcus faecalis (GC 4552)
[6] = Enterococcus faecalis (GC 4553)
[7] = Enterococcus faecalis (GC 4554)
[8] = Enterococcus faecalis (GC 6189)
[9] = broth dilution, inoculum 5×10^5 CFU/mL
[10] = Streptococcus agalactiae (GC 4564)
[11] = Streptococcus pneumoniae (ATCC 6301)
[12] = Streptococcus pneumoniae (GC 1894)
[13] = Streptococcus pneumoniae (GC 4565)
[14] = Streptococcus pyogenes (GC 4563)

MIC Escherichia coli (ATCC 25922) (Escherichia coli): >64 µg/mL
MIC Escherichia coli (GC 4559) (Escherichia coli): >64 µg/mL
MIC Escherichia coli (GC 4560) (Escherichia coli): 64 µg/mL (≈ 44.9 µM)
MIC Enterococcus avium (GC 4558) (Enterococcus sp.; Enterococcus avium (GC 4558)): 64 µg/mL (≈ 44.9 µM)
MIC Enterococcus faecalis (ATCC 29212) (Enterococcus sp.; [1]): >64 µg/mL
MIC Enterococcus faecalis (GC 2242) (Enterococcus sp.; [2]): >64 µg/mL
MIC Enterococcus faecalis (GC 2691) (Enterococcus sp.; [3]): >64 µg/mL
MIC Enterococcus faecalis (GC 3059) (Enterococcus sp.; [4]): >64 µg/mL
MIC Enterococcus faecalis (GC 4552) (Enterococcus sp.; [5]): >64 µg/mL
MIC Enterococcus faecalis (GC 4553) (Enterococcus sp.; [6]): >64 µg/mL
MIC Enterococcus faecalis (GC 4554) (Enterococcus sp.; [7]): >64 µg/mL
MIC Enterococcus faecalis (GC 6189) (Enterococcus sp.; [8]): >64 µg/mL
MIC Enterococcus faecium (GC 2243) (Enterococcus sp.; Enterococcus faecium (GC 2243)): >64 µg/mL
MIC Enterococcus faecium (GC 4556) (Enterococcus sp.; Enterococcus faecium (GC 4556)): >64 µg/mL
MIC Enterococcus faecium (GC 4557) (Enterococcus sp.; Enterococcus faecium (GC 4557)): 64 µg/mL (≈ 44.9 µM)
MIC Enterococcus avium (GC 4558) (Enterococcus sp.; [9]): 64 µg/mL (≈ 44.9 µM)
MIC Enterococcus faecalis (ATCC 29212) (Enterococcus sp.; [9]): >64 µg/mL
MIC Enterococcus faecalis (GC 2242) (Enterococcus sp.; [9]): >64 µg/mL
MIC Enterococcus faecalis (GC 2691) (Enterococcus sp.; [9]): >64 µg/mL
MIC Enterococcus faecalis (GC 3059) (Enterococcus sp.; [9]): >64 µg/mL
MIC Enterococcus faecalis (GC 4552) (Enterococcus sp.; [9]): >64 µg/mL
MIC Enterococcus faecalis (GC 4553) (Enterococcus sp.; [9]): >64 µg/mL
MIC Enterococcus faecalis (GC 4554) (Enterococcus sp.; [9]): >64 µg/mL
MIC Enterococcus faecalis (GC 6189) (Enterococcus sp.; [9]): >64 µg/mL
MIC Enterococcus faecium (GC 2243) (Enterococcus sp.; [9]): >64 µg/mL
MIC Enterococcus faecium (GC 4556) (Enterococcus sp.; [9]): >64 µg/mL
MIC Enterococcus faecium (GC 4557) (Enterococcus sp.; [9]): 64 µg/mL (≈ 44.9 µM)
MIC Staphylococcus aureus (ATCC 29213) (Staphylococcus sp.): >64 µg/mL
MIC Staphylococcus aureus (GC 1131) (Staphylococcus sp.): >64 µg/mL
MIC Staphylococcus aureus (GC 3051) (Staphylococcus sp.): >64 µg/mL
MIC Staphylococcus aureus (GC 3053) (Staphylococcus sp.): >64 µg/mL
MIC Staphylococcus aureus (GC 4541) (Staphylococcus sp.): >64 µg/mL
MIC Staphylococcus aureus (GC 4542) (Staphylococcus sp.): >64 µg/mL
MIC Staphylococcus aureus-SMITH (GC 4543) (Staphylococcus sp.): >64 µg/mL
MIC Staphylococcus aureus (GC 4544) (Staphylococcus sp.): >64 µg/mL
MIC Staphylococcus aureus (GC 4545) (Staphylococcus sp.): >64 µg/mL
MIC Coagulase Negative Staphylococcus (GC 4547) (Staphylococcus sp.): >64 µg/mL
MIC Coagulase Negative Staphylococcus (GC 4548) (Staphylococcus sp.): >64 µg/mL
MIC Coagulase Negative Staphylococcus (GC 4549) (Staphylococcus sp.): >64 µg/mL
MIC Coagulase Negative Staphylococcus (GC 4551) (Staphylococcus sp.): >64 µg/mL
MIC Streptococcus agalactiae (GC 4564) (Streptococcus sp.; [10]): >64 µg/mL
MIC Streptococcus pneumoniae (ATCC 6301) (Streptococcus sp.; [11]): 64 µg/mL (≈ 44.9 µM)
MIC Streptococcus pneumoniae (GC 1894) (Streptococcus sp.; [12]): 32 µg/mL (≈ 22.4 µM)
MIC Streptococcus pneumoniae (GC 4565) (Streptococcus sp.; [13]): 64 µg/mL (≈ 44.9 µM)
MIC Streptococcus pyogenes (GC 4563) (Streptococcus sp.; [14]): 64 µg/mL (≈ 44.9 µM)
MIC Streptococcus agalactiae (GC 4564) (Streptococcus sp.; [9]): >64 µg/mL
MIC Streptococcus pneumoniae (ATCC 6301) (Streptococcus sp.; [9]): 64 µg/mL (≈ 44.9 µM)
MIC Streptococcus pneumoniae (GC 1894) (Streptococcus sp.; [9]): 32 µg/mL (≈ 22.4 µM)
MIC Streptococcus pneumoniae (GC 4565) (Streptococcus sp.; [9]): 64 µg/mL (≈ 44.9 µM)
MIC Streptococcus pyogenes (GC 4563) (Streptococcus sp.; [9]): 64 µg/mL (≈ 44.9 µM)
Structure (SMILES): N=C1NCC(C(O)C2NC(=O)C(CC3CCC(OC4OC(CO)C(OC5OC6COC7(OC6C(O)C5O)C5CC6CC(C5)CC7C6)C(O)C4O)CC3)NC(=O)C(CC3CCCCC3)NC(=O)CNC(=O)C(CO)NC(=O)C(C(O)C3CNC(=N)N3C3OC(CO)C(O)C(O)C3O)NC2=O)N1 (stereo not drawn) [Example 222]
MIC Staphylococcus haemolyticus (GC 4546) (Staphylococcus sp.): >64 µg/mL

MIC Escherichia coli (ATCC 25922) (Escherichia coli): >64 µg/mL
MIC Escherichia coli (GC 4559) (Escherichia coli): >64 µg/mL
MIC Escherichia coli (GC 4560) (Escherichia coli): 32 µg/mL (≈ 22.4 µM)
MIC Enterococcus avium (GC 4558) (Enterococcus sp.; Enterococcus avium (GC 4558)): 64 µg/mL (≈ 44.9 µM)
MIC Enterococcus faecalis (ATCC 29212) (Enterococcus sp.; [1]): >64 µg/mL
MIC Enterococcus faecalis (GC 2242) (Enterococcus sp.; [2]): >64 µg/mL
MIC Enterococcus faecalis (GC 2691) (Enterococcus sp.; [3]): >64 µg/mL
MIC Enterococcus faecalis (GC 3059) (Enterococcus sp.; [4]): >64 µg/mL
MIC Enterococcus faecalis (GC 4552) (Enterococcus sp.; [5]): >64 µg/mL
MIC Enterococcus faecalis (GC 4553) (Enterococcus sp.; [6]): 64 µg/mL (≈ 44.9 µM)
MIC Enterococcus faecalis (GC 4554) (Enterococcus sp.; [7]): >64 µg/mL
MIC Enterococcus faecalis (GC 6189) (Enterococcus sp.; [8]): >64 µg/mL
MIC Enterococcus faecium (GC 2243) (Enterococcus sp.; Enterococcus faecium (GC 2243)): >64 µg/mL
MIC Enterococcus faecium (GC 4556) (Enterococcus sp.; Enterococcus faecium (GC 4556)): >64 µg/mL
MIC Enterococcus faecium (GC 4557) (Enterococcus sp.; Enterococcus faecium (GC 4557)): 64 µg/mL (≈ 44.9 µM)
MIC Enterococcus avium (GC 4558) (Enterococcus sp.; [9]): 64 µg/mL (≈ 44.9 µM)
MIC Enterococcus faecalis (ATCC 29212) (Enterococcus sp.; [9]): >64 µg/mL
MIC Enterococcus faecalis (GC 2242) (Enterococcus sp.; [9]): >64 µg/mL
MIC Enterococcus faecalis (GC 2691) (Enterococcus sp.; [9]): >64 µg/mL
MIC Enterococcus faecalis (GC 3059) (Enterococcus sp.; [9]): >64 µg/mL
MIC Enterococcus faecalis (GC 4552) (Enterococcus sp.; [9]): >64 µg/mL
MIC Enterococcus faecalis (GC 4553) (Enterococcus sp.; [9]): 64 µg/mL (≈ 44.9 µM)
MIC Enterococcus faecalis (GC 4554) (Enterococcus sp.; [9]): >64 µg/mL
MIC Enterococcus faecalis (GC 6189) (Enterococcus sp.; [9]): >64 µg/mL
MIC Enterococcus faecium (GC 2243) (Enterococcus sp.; [9]): >64 µg/mL
MIC Enterococcus faecium (GC 4556) (Enterococcus sp.; [9]): >64 µg/mL
MIC Enterococcus faecium (GC 4557) (Enterococcus sp.; [9]): 64 µg/mL (≈ 44.9 µM)
MIC Staphylococcus aureus (ATCC 29213) (Staphylococcus sp.): >64 µg/mL
MIC Staphylococcus aureus (GC 1131) (Staphylococcus sp.): >64 µg/mL
MIC Staphylococcus aureus (GC 3051) (Staphylococcus sp.): 64 µg/mL (≈ 44.9 µM)
MIC Staphylococcus aureus (GC 3053) (Staphylococcus sp.): >64 µg/mL
MIC Staphylococcus aureus (GC 4541) (Staphylococcus sp.): 64 µg/mL (≈ 44.9 µM)
MIC Staphylococcus aureus (GC 4542) (Staphylococcus sp.): 64 µg/mL (≈ 44.9 µM)
MIC Staphylococcus aureus-SMITH (GC 4543) (Staphylococcus sp.): 64 µg/mL (≈ 44.9 µM)
MIC Staphylococcus aureus (GC 4544) (Staphylococcus sp.): 64 µg/mL (≈ 44.9 µM)
MIC Staphylococcus aureus (GC 4545) (Staphylococcus sp.): 64 µg/mL (≈ 44.9 µM)
MIC Coagulase Negative Staphylococcus (GC 4547) (Staphylococcus sp.): 64 µg/mL (≈ 44.9 µM)
MIC Coagulase Negative Staphylococcus (GC 4548) (Staphylococcus sp.): 64 µg/mL (≈ 44.9 µM)
MIC Coagulase Negative Staphylococcus (GC 4549) (Staphylococcus sp.): 64 µg/mL (≈ 44.9 µM)
MIC Coagulase Negative Staphylococcus (GC 4551) (Staphylococcus sp.): 64 µg/mL (≈ 44.9 µM)
MIC Streptococcus agalactiae (GC 4564) (Streptococcus sp.; [10]): >64 µg/mL
MIC Streptococcus pneumoniae (ATCC 6301) (Streptococcus sp.; [11]): 64 µg/mL (≈ 44.9 µM)
MIC Streptococcus pneumoniae (GC 1894) (Streptococcus sp.; [12]): 32 µg/mL (≈ 22.4 µM)
MIC Streptococcus pneumoniae (GC 4565) (Streptococcus sp.; [13]): >64 µg/mL
MIC Streptococcus pyogenes (GC 4563) (Streptococcus sp.; [14]): 64 µg/mL (≈ 44.9 µM)
MIC Streptococcus agalactiae (GC 4564) (Streptococcus sp.; [9]): >64 µg/mL
MIC Streptococcus pneumoniae (ATCC 6301) (Streptococcus sp.; [9]): 64 µg/mL (≈ 44.9 µM)
MIC Streptococcus pneumoniae (GC 1894) (Streptococcus sp.; [9]): 32 µg/mL (≈ 22.4 µM)
MIC Streptococcus pneumoniae (GC 4565) (Streptococcus sp.; [9]): >64 µg/mL
MIC Streptococcus pyogenes (GC 4563) (Streptococcus sp.; [9]): 64 µg/mL (≈ 44.9 µM)
Structure (SMILES): N=C1NCC(C(O)C2NC(=O)C(CC3CCC(OC4OC(CO)C(OC5OC6COC7(OC6C(O)C5O)C5CC6CC(C5)CC7C6)C(O)C4O)CC3)NC(=O)C(CC3CCCCC3)NC(=O)CNC(=O)C(CO)NC(=O)C(C(O)C3CNC(=N)N3C3OC(CO)C(O)C(O)C3O)NC2=O)N1 (stereo not drawn) [Example 223]
MIC Staphylococcus haemolyticus (GC 4546) (Staphylococcus sp.): 64 µg/mL (≈ 44.9 µM)
